≈ marks a conversion by molar mass, not a printed value. Where two headings read alike, the source gives them in different places.
What was measured:
in vivo = conditions: mouse, po
Experimental: Mammalian toxicity was determined against Swiss white mice. The test compound was applied orally using corn oil as the carrier.

[1] = system: house flies, Musca domestica; assay: insecticidal activity against house flies, topical application, mortality at 24 h; format: in vivo; conditions: read-out: House flies LD50
Experimental: (§1) Representative compounds of the N-arylthio- and N-alkylthiosulfinylcarbamate esters of the invention were tested for insecticidal activity against two insect species, house flies, Musca domestica, and mosquito larvae, Culex pipiens. Stock 1% concentrated solutions of each of the test compounds were made in acetone, and such solutions diluted with acetone to a concentration of 0.001-0.1%. House flies were treated topically on the notum by 1 μl of each of the diluted acetone solutions and percent mortality was counted 24 hours after application. Insects were held at a constant temperature of 60° F. Larvicidal activity was determined by applying 1 ml of the acetone solution in 100 ml of water containing 20 3rd instar mosquito larvae. Results are presented as LD50 in μg/g for house flies and LC50 in ppm for mosquito larvae.

[2] = system: mosquito larvae, Culex pipiens; assay: larvicidal activity against mosquito larvae; format: in vivo; conditions: 3rd instar mosquito larvae, 1 ml acetone solution in 100 ml water
Experimental: as §1

[3] = house flies, topical on notum, 1 μl acetone solution, 24 hours

| SMILES | LD50 (in vivo) | LD50 ([1]; topical, 24 h) | LD50 [1, 3] | LC50 [2] |
| --- | --- | --- | --- | --- |
| Cc1cc(C(C)(C)C)ccc1S[S+]([O-])N(C)C(=O)Oc1ccccc1OC(C)C (centres unmarked) [VII, 2-isopropoxyphenyl (methyl)(2-methyl-4-t-butylphenylthiosulfinyl)carbamate] | > 1000 mg/kg | 27 mg/kg | – | – |
| CSC(C)=NOC(=O)N(C)[S+]([O-])SC(C)(C)C (centres unmarked) [VIII, S-methyl N-[N'-methyl-N'-t-butylthiosulfinylcarbamoyloxy]thioacetimidate] | 135 mg/kg | – | 5.5 mg/kg | – |
| CN(C(=O)Oc1cccc2c1OC(C)(C)C2)[S+]([O-])SC(C)(C)C (centres unmarked) [II, 2,3-dihydro-2,2-dimethylbenzofuranyl-7 (methyl)(t-butylthiosulfinyl)carbamate] | 70 mg/kg | 9 mg/kg | – | 0.01 µg/mL (≈ 0.028 µM) |
| CN(C(=O)Oc1cccc2ccccc12)[S+]([O-])Sc1ccccc1 (centres unmarked) [XIV, 1-naphthyl (methyl)(phenylthiosulfinyl)carbamate] | > 1000 mg/kg | 350 mg/kg | – | – |
| CC(C)c1cccc(OC(=O)N(C)[S+]([O-])SC(C)(C)C)c1 (centres unmarked) [Example X, 3-isopropylphenyl (methyl)(t-butylthiosulfinyl)carbamate] | 250 mg/kg | 75 mg/kg | – | – |
| CN(C(=O)Oc1cccc2ccccc12)[S+]([O-])SC(C)(C)C (centres unmarked) [XIII, 1-naphthyl (methyl)(t-butylthiosulfinyl)carbamate] | > 1000 mg/kg | 235 mg/kg | – | – |
| CCCCS[S+]([O-])N(C)C(=O)Oc1cccc2c1OC(C)(C)C2 (centres unmarked) [Example I, 2,3-dihydro-2,2-dimethylbenzofuranyl-7 (methyl)(n-butylthiosulfinyl)carbamate] | 45 mg/kg | 16.5 mg/kg | – | – |
| Cc1cc(C(C)(C)C)ccc1S[S+]([O-])N(C)C(=O)Oc1cccc2c1OC(C)(C)C2 (centres unmarked) [Example V, 2,3-dihydro-2,2-dimethylbenzofuranyl-7 (methyl)(2-methyl-4-t-butylphenylthiosulfinyl)carbamate] | 70 mg/kg | 8.8 mg/kg | – | – |
| CNC(=O)Oc1cccc2c1OC(C)(C)C2 [carbofuran, 2,3-dihydro-2,2-dimethyl-7-benzofuranyl methylcarbamate, reference compound] | 2 to 8 mg/kg | ~6.5 mg/kg | – | – |
| CN(C(=O)Oc1cccc2c1OC(C)(C)C2)[S+]([O-])Sc1ccc(C(C)(C)C)cc1 (centres unmarked) [IV, 2,3-dihydro-2,2-dimethylbenzofuranyl-7 (methyl)(4-t-butylphenylthiosulfinyl)carbamate] | 92 mg/kg | 11.8 mg/kg | – | – |
| CN(C(=O)Oc1cccc2c1OC(C)(C)C2)[S+]([O-])Sc1ccccc1 (centres unmarked) [III, 2,3-dihydro-2,2-dimethylbenzofuranyl-7 (methyl)(phenylthiosulfinyl)carbamate] | 32 mg/kg | 7 mg/kg | – | 0.05 µg/mL (≈ 0.132 µM) |
| CNC(=O)Oc1ccccc1OC(C)C [2-isopropoxyphenyl methylcarbamate, reference compound] | 60 mg/kg | – | – | – |
| Cc1cc(C(C)(C)C)ccc1S[S+]([O-])N(C)C(=O)Oc1cccc(C(C)C)c1 (centres unmarked) [XI, 3-isopropylphenyl (methyl)(2-methyl-4-t-butylphenylthiosulfinyl)carbamate] | 450 mg/kg | 62.5 mg/kg | – | – |
| CCCCS[S+]([O-])N(C)C(=O)Oc1ccccc1OC(C)C (centres unmarked) [Example VI, 2-isopropoxyphenyl (methyl)(n-butylthiosulfinyl)carbamate] | 1050 mg/kg | 31 mg/kg | – | – |
| CSC(C)=NOC(=O)N(C)[S+]([O-])Sc1ccccc1 (centres unmarked) [IX, S-methyl N-[N'-methyl-N'-phenylthiosulfinylcarbamoyloxy]thioacetimidate] | 150 mg/kg | – | 6.5 mg/kg | – |
| CCCCCCCCCCCCS[S+]([O-])N(C)C(=O)ON=CC(C)(C)SC (centres unmarked) [XII, 2-methyl-2-(methylthio)propionaldehyde O-[(methyl)(dodecylthiosulfinyl)carbamoyl]oxime] | – | – | 12 mg/kg | – |
